Literature values in patent US20050053655A1, “Rapid disintegrating tablets (RDTs) for pharmaceutical use and method for preparing the same” (Pharmaceutical Industry Technology and Development Center, priority 2003, published 2005).

solubility in water: very slightly soluble in water
SMILES: NC(N)=Nc1nc(CSCCC(N)=NS(N)(=O)=O)cs1 [Famotidine, famotidine]
